The text below walks through data of patent publication US8173635B2, “Kinase inhibitors” (Vertex Pharmaceuticals Incorporated, priority 2007, dated 2012).

Type in all cases: biochemical
The target in one test is PKC theta kinase (Homo sapiens, UniProt Q04759). The test is described as follows: PKC theta kinase inhibition, coupled-enzyme NADH absorbance assay (Ki). The following applies: 240 μM ATP, 18 nM PKC theta, 30° C.; read-out: Ki PKC theta. The gist of the method: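 Coupled-enzyme kinase assay following NADH absorbance at 340 nm, in 100 mM HEPES pH 7.5, 10 mM MgCl2, 25 mM NaCl, 0.1 mM EDTA, 0.01% Brij. Compound in DMSO preincubated with enzyme 10 min at 30 °C. Ki from initial rates by non-linear regression.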
Chain of PKC theta kinase (Q04759 whole entry): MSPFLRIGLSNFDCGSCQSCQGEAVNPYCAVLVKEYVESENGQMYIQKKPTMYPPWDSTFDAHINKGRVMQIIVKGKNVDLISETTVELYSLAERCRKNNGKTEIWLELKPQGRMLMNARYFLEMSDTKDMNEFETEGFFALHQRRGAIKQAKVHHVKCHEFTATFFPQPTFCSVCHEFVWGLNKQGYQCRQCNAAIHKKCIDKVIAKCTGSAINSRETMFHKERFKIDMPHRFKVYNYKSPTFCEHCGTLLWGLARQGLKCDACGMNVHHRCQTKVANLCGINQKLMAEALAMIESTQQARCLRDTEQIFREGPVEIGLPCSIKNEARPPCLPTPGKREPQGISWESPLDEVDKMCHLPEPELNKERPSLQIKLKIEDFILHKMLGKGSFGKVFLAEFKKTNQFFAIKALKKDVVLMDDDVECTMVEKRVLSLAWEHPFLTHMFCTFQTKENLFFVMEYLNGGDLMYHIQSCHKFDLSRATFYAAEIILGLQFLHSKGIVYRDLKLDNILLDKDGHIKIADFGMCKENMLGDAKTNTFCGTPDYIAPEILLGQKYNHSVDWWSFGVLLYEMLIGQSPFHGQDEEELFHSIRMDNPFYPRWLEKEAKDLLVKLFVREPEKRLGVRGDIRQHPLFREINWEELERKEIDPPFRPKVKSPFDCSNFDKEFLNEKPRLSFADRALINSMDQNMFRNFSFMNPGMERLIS

Another test has as its target PKC delta kinase (Homo sapiens, UniProt Q05655). Put plainly: PKC delta kinase inhibition, coupled-enzyme NADH absorbance assay (Ki). The following applies: 150 μM ATP, 46 nM PKC delta, 30° C.; read-out: Ki PKC delta. An outline of the steps:
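Assay buffer was 100 mM HEPES pH 7.5, 10 mM MgCl2, 25 mM NaCl, 0.1 mM EDTA, 0.01% Brij. Enzyme buffer was equilibrated with compound in DMSO for 10 min at 30 °C. Ki values were derived by non-linear regression of initial rate data.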

The next test has as its target PKC alpha kinase (Homo sapiens, UniProt P17252). The test is described as follows: PKC alpha kinase inhibition, coupled-enzyme NADH absorbance assay (Ki). Particulars: 130 μM ATP, 4.5 nM PKC alpha, 30° C.; read-out: Ki PKC alpha.

Chain of PKC delta kinase (Q05655 whole entry): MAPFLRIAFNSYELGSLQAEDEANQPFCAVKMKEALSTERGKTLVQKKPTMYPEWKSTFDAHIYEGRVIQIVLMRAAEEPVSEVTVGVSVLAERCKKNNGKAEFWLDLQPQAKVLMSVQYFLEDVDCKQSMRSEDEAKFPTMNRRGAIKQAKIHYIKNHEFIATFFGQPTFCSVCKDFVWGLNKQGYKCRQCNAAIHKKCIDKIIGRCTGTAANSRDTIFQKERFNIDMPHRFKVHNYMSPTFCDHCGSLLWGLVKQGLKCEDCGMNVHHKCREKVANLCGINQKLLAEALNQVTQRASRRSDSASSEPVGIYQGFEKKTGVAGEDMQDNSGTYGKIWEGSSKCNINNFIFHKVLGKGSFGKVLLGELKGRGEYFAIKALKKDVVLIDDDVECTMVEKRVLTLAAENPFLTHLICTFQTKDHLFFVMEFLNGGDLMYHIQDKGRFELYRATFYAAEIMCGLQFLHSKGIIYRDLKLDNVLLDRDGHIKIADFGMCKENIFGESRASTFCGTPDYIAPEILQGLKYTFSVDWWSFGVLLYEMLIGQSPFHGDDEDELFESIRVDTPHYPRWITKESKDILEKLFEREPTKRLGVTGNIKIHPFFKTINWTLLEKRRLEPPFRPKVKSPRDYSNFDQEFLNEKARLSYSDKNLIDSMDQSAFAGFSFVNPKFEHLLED

`CC(F)c1cc(-c2ccnc3[nH]ncc23)cc(C(C)(C)CN)c1` (stereo not drawn) [Compound 136]: the Ki was < 50 nM on PKC theta kinase, < 2800 nM at PKC delta kinase and < 2800 nM on PKC alpha kinase.

As for `CCC(C)(C#N)c1cc(CC#N)cc(-c2ccnc3[nH]ncc23)c1` (stereo not drawn) [Compound 126], the Ki on PKC theta kinase was < 500 nM; on PKC delta kinase it was > 2000 nM; at PKC alpha kinase it was > 1200 nM.

In the case of `CC(CN)(Cc1ccccn1)c1cccc(-c2ccnc3[nH]ncc23)c1` (stereo not drawn) [Compound 175], the Ki at PKC theta kinase is < 500 nM; on PKC delta kinase, > 2000 nM; at PKC alpha kinase it was > 1200 nM.

In the case of `CCc1n[nH]c2nccc(-c3cccc(C4(CN)COC4)c3)c12` [Compound 306], the Ki is < 50 nM at PKC theta kinase, < 500 nM on PKC delta kinase and > 1200 nM at PKC alpha kinase.

As for `CC(N)c1cccc(-c2ccnc3[nH]ncc23)c1` (stereo not drawn) [Compound 246], the Ki was < 500 nM at PKC theta kinase, < 2800 nM on PKC delta kinase and > 1200 nM at PKC alpha kinase.

As for `C/C=C\c1cc(-c2ccnc3[nH]ncc23)cc(C(C)(CC)CN)c1` (stereo not drawn) [Compound 143], the Ki on PKC theta kinase was < 500 nM; on PKC delta kinase, < 500 nM; at PKC alpha kinase, < 2800 nM.

On to `CCC(C)(CN)c1cc(F)cc(-c2ccnc3[nH]nc(C(F)(F)F)c23)c1` (stereo not drawn) [Compound 277], for which the Ki on PKC theta kinase, on PKC delta kinase and on PKC alpha kinase was < 50 nM each time.

On to `C=CCc1cc(-c2ccnc3[nH]ncc23)cc(C(C)(C)C#N)c1` [Compound 67], for which the values for the Ki on PKC theta kinase, on PKC delta kinase and on PKC alpha kinase were < 500 nM, > 2800 nM and < 2800 nM, respectively.

As to `CCCC(C)(C#N)c1cccc(-c2ccnc3[nH]ncc23)c1` (stereo not drawn) [Compound 69], the Ki at PKC theta kinase was < 2800 nM; at PKC delta kinase, > 2800 nM; on PKC alpha kinase, < 2800 nM.

For `CCc1n[nH]c2nccc(-c3cc(F)cc(C4(CN)CCC4)c3)c12` [Compound 263], the Ki at PKC theta kinase is < 50 nM; at PKC delta kinase it was < 500 nM; on PKC alpha kinase, < 50 nM.

`CCC(C)(C#N)c1cc(-c2ccnc3[nH]ncc23)cc(C(F)(F)CCC2CCCC2)c1` (stereo not drawn) [Compound 117]: the Ki at PKC theta kinase was > 700 nM; at PKC delta kinase it was > 2000 nM; at PKC alpha kinase, > 1200 nM.

Regarding `NCC1(c2cc(F)cc(-c3ccnc4[nH]nc(C(F)(F)F)c34)c2)CCC1` [Compound 274], the Ki was < 50 nM at PKC theta kinase, < 500 nM at PKC delta kinase and < 50 nM at PKC alpha kinase.

For the compound `COCC(C)(C#N)c1cccc(-c2ccnc3[nH]ncc23)c1` (stereo not drawn) [Compound 95], the Ki is < 500 nM at PKC theta kinase, > 2800 nM at PKC delta kinase and < 2800 nM at PKC alpha kinase.

In the case of `CC(C#N)(Cc1ccccc1)c1cccc(-c2ccnc3[nH]ncc23)c1` (stereo not drawn) [Compound 100], the Ki on PKC theta kinase was > 210 nM; on PKC delta kinase it was > 2800 nM; on PKC alpha kinase, > 390 nM.

`Cc1cnc2[nH]ncc2c1-c1cccc(C(C)(C)CN)c1` [Compound 237, 2-methyl-2-(3-(5-methyl-1H-pyrazolo[3,4-b]pyridin-4-yl)phenyl)propan-1-amine]: the values for the Ki at PKC theta kinase, on PKC delta kinase and on PKC alpha kinase were < 2800 nM, < 2800 nM and < 500 nM, respectively.

Regarding `CC(C)(C#N)c1cccc(-c2ccnc3[nH]ncc23)n1` [Compound 1, 2-(6-(1H-pyrazolo[3,4-b]pyridin-4-yl)pyridin-2-yl)-2-methylpropanenitrile], the results for the Ki on PKC theta kinase, at PKC delta kinase and at PKC alpha kinase were < 50 nM, < 500 nM and < 500 nM, respectively.

`CCCc1cc(-c2ccnc3[nH]ncc23)cc(C2(C#N)CCCC2)c1` [Compound 97]: the Ki on PKC theta kinase is < 500 nM; on PKC delta kinase it was > 2800 nM; on PKC alpha kinase it was > 2800 nM.

For the compound `CCc1cc(-c2ccnc3[nH]nc(Cl)c23)cc(C2(CN)CCC2)c1` [Compound 211], the Ki is < 50 nM at PKC theta kinase, < 2800 nM on PKC delta kinase and < 500 nM on PKC alpha kinase.

Consider `CCC(C)(C#N)c1cc(CCO)cc(-c2ccnc3[nH]ncc23)c1` (stereo not drawn) [Compound 101], for which the Ki is < 50 nM at PKC theta kinase, > 2800 nM on PKC delta kinase and < 2800 nM at PKC alpha kinase.

Turning to `C#CC1(c2cc(C)cc(-c3ccnc4[nH]ncc34)c2)CNC(=O)O1` (stereo not drawn) [Compound 319], the Ki on PKC theta kinase was < 50 nM; on PKC delta kinase, < 500 nM; on PKC alpha kinase, < 500 nM.

As to `CC(CN)(CC(F)F)c1cccc(-c2ccnc3[nH]ncc23)c1` (stereo not drawn) [Compound 148], the Ki at PKC theta kinase is < 50 nM; at PKC delta kinase, < 50 nM; on PKC alpha kinase it was < 500 nM.

Regarding `N#CC1(c2cccc(-c3ccnc4[nH]nc(Cl)c34)c2)CCC1` [Compound 259], the Ki at PKC theta kinase was < 50 nM; at PKC delta kinase, < 500 nM; at PKC alpha kinase it was < 500 nM.

Turning to `CCC(C)(CN)c1cc(C)cc(-c2ccnc3[nH]ncc23)c1` (stereo not drawn) [Compound 144], the results for the Ki at PKC theta kinase, at PKC delta kinase and at PKC alpha kinase were < 50 nM, < 500 nM and < 500 nM, respectively.

As for `COC(CN)c1cc(C)cc(-c2ccnc3[nH]nc(C(F)(F)F)c23)c1` (stereo not drawn) [Compound 297], the Ki was < 50 nM on PKC theta kinase, < 2800 nM on PKC delta kinase and < 500 nM at PKC alpha kinase.

In the case of `CC(C)CC(C)(CN)c1cccc(-c2ccnc3[nH]ncc23)c1` (stereo not drawn) [Compound 45], the Ki at PKC theta kinase was < 50 nM; at PKC delta kinase, < 500 nM; on PKC alpha kinase it was < 500 nM.

As to `COCCC(C)(CN)c1cccc(-c2ccnc3[nH]ncc23)c1` (stereo not drawn) [Compound 146], the Ki at PKC theta kinase is < 50 nM; on PKC delta kinase, < 500 nM; at PKC alpha kinase, < 2800 nM.

Regarding `CCc1ccc(-c2ccnc3[nH]ncc23)cc1C(C)(C)CN` [Compound 132], the Ki on PKC theta kinase is < 500 nM; on PKC delta kinase, < 2800 nM; at PKC alpha kinase, < 2800 nM.

For the compound `CCC(C)(CO)c1cc(C)cc(-c2ccnc3[nH]ncc23)c1` (stereo not drawn) [Compound 241], the results for the Ki at PKC theta kinase, at PKC delta kinase and on PKC alpha kinase were < 50 nM, < 2800 nM and < 500 nM, respectively.

Take `N#C[C@]1(c2cccc(-c3ccnc4[nH]ncc34)c2)C[C@@H](N)C1` [Compound 249]: the Ki is < 50 nM on PKC theta kinase, < 2800 nM on PKC delta kinase and < 500 nM on PKC alpha kinase.

As for `c1cc(-c2ccnc3[nH]ncc23)cc(C2CCNCC2)c1` [Compound 230], the Ki at PKC theta kinase, at PKC delta kinase and at PKC alpha kinase was < 2800 nM in each case.

On to `CC(C)C(C)(CN)c1cccc(-c2ccnc3[nH]ncc23)c1` (stereo not drawn) [Compound 48], for which the Ki on PKC theta kinase was < 50 nM; on PKC delta kinase, < 500 nM; on PKC alpha kinase it was < 500 nM.

As to `CCCc1cc(-c2ccnc3[nH]ncc23)cc(C2(CCN)CCC2)c1` [Compound 187], the Ki is < 2800 nM at PKC theta kinase, > 2000 nM on PKC delta kinase and > 1200 nM on PKC alpha kinase.

For the compound `CNCC(F)(F)c1cc(-c2ccnc3[nH]ncc23)cc(C2(C#N)CC2)c1` [Compound 123], the Ki was < 50 nM on PKC theta kinase, < 2800 nM on PKC delta kinase and < 2800 nM at PKC alpha kinase.

`CCC(C)(CN)c1cc(CCCOC)cc(-c2ccnc3[nH]ncc23)c1` (stereo not drawn) [Compound 164]: the Ki is < 50 nM on PKC theta kinase, < 2800 nM at PKC delta kinase and < 500 nM at PKC alpha kinase.

Regarding `OCC1(c2cccc(-c3ccnc4[nH]nc(C(F)(F)F)c34)c2)CC1` [Compound 290], the Ki was < 50 nM at PKC theta kinase, < 500 nM on PKC delta kinase and < 2800 nM on PKC alpha kinase.

Consider `CCC(C)(C#N)c1cc(CO)cc(-c2ccnc3[nH]ncc23)c1` (stereo not drawn) [Compound 121], for which the values for the Ki on PKC theta kinase, at PKC delta kinase and at PKC alpha kinase were < 500 nM, > 2000 nM and > 1200 nM, respectively.

As for `CCC(C#N)c1cccc(-c2ccnc3[nH]ncc23)c1` (stereo not drawn) [Compound 66], the results for the Ki at PKC theta kinase, on PKC delta kinase and at PKC alpha kinase were < 500 nM, < 2800 nM and < 2800 nM, respectively.

Take `CCc1cc(-c2ccnc3[nH]ncc23)cc(C(C)(CC)CN)c1` (stereo not drawn) [Compound 131]: the Ki is < 50 nM at PKC theta kinase, < 2800 nM on PKC delta kinase and < 500 nM on PKC alpha kinase.

Take `NCC1(c2cccc(-c3ccnc4[nH]ncc34)c2)CCC1` [Compound 49]: the Ki is < 50 nM at PKC theta kinase, < 500 nM on PKC delta kinase and < 2800 nM at PKC alpha kinase.

`FC(F)(F)c1n[nH]c2nccc(-c3cccc(C4(COCc5ccccc5)CC4)c3)c12` [Compound 289]: the figures for the Ki on PKC theta kinase, at PKC delta kinase and at PKC alpha kinase were > 700 nM, > 2000 nM and > 1200 nM, respectively.

For the compound `Cc1cc(-c2ccnc3[nH]nc(C(F)(F)F)c23)cc(C(C)(C)C#N)c1` [Compound 324], the figures for the Ki at PKC theta kinase, on PKC delta kinase and on PKC alpha kinase were < 50 nM, > 1200 nM and < 500 nM, respectively.

For `CC[C@@](C)(CN)c1cccc(-c2ccnc3[nH]ncc23)c1` [Compound 152], the Ki on PKC theta kinase is < 50 nM; on PKC delta kinase, < 500 nM; on PKC alpha kinase, < 500 nM.

Consider `CC(C)(C)c1n[nH]c2nccc(-c3cc(Br)cc(C(C)(C)C#N)c3)c12` [Compound 112], for which the Ki is > 700 nM at PKC theta kinase, > 2000 nM on PKC delta kinase and > 1200 nM at PKC alpha kinase.

Take `N#CCC1(c2cccc(-c3ccnc4[nH]ncc34)c2)CCNC1` (stereo not drawn) [Compound 200]: the Ki was < 50 nM at PKC theta kinase, < 500 nM at PKC delta kinase and < 500 nM on PKC alpha kinase.

With `NCC1(c2cc(F)cc(-c3ccnc4[nH]nc(Cl)c34)c2)CCC1` [Compound 255], the Ki at PKC theta kinase, on PKC delta kinase and at PKC alpha kinase was < 50 nM in each case.

For `CCC(C)(CN)c1cc(-c2ccnc3[nH]ncc23)cc(C(F)(F)CCC2CCCCC2)c1` (stereo not drawn) [Compound 180], the Ki was > 700 nM at PKC theta kinase, > 2000 nM at PKC delta kinase and > 1200 nM on PKC alpha kinase.
